{
  "source": "patent US9453242B2",
  "about": "“Method and culture medium for preparing mammalian ovum or embryo in which zona pellucida has been thinned or eliminated, and method for fertilization using mammalian ovum prepared by same method” (NATIONAL UNIVERISTY CORPORATION KUMAMOTO UNIVERSITY, priority 2010, dated 2016)",
  "key": {"[1]": {"tested_on": "mouse frozen unfertilized ovums", "experimental": "According to an ordinary method, mouse frozen unfertilized ovums were prepared using 8-week old female mice."}, "[2]": {"tested_on": "zona pellucida of a mouse unfertilized ovum", "assay": "Swelling of zona pellucida (area in zona pellucida) of unfertilized ovum", "type": "cell-based", "details": "37° C., 6 hours", "experimental": "Further, the influence of glutathione on swelling of zona pellucida was confirmed. […] Preparation of ovum” were treated with HTF culture media containing glutathione at various concentration at 37° C. for 6 hours, then, the area in zona pellucida was photographed under a microscope and measured by an image analysis software. The conditions of zona pellucida at glutathione concentrations of 0 mM, 1 mM, 2 mM and 10 mM were observed by an invert microscope.\nThe influence of other reducing agents (DTT, ascorbic acid (VC) and epicatechin (EC)) exerted on thinning and swelling of zona pellucida was confirmed in the same manner as in Example 2. The extent of swelling of the zona pellucida of an unfertilized ovum by the concentration of each reducing agent was photographed under a microscope, and determined according to the following formula. % Relative area in ZP=(area of zona pellucida in each experiment/area of zona pellucida at 0 mM)×100"}, "[3]": {"tested_on": "mouse unfertilized ovum (cumulus-oocyte complexes)", "experimental": "A sperm suspension is pre-incubated in 90 μl of a TYH culture medium at 37° C. for 30 minutes, and under a stereomicroscope, sperms showing motility are collected, avoiding nonmotile sperms, and used for fertilization. The pre-incubated sperm suspension (10 μl) is added to 90 μl of an HTF culture medium (±glutathione) into which cumulus-oocyte complexes (COCs) have been previously introduced (insemination), and these are co-incubated in an incubator for 5 to 6 hours (37° C., 5% CO2), thereby performing fertilization. Thereafter, the ovum is washed with drops of new HTF, and the ovum is observed. Those judged to parthenogenetic (only one pronucleus is recognized in ooplasm) are excluded, and on the following day (24 hours after insemination), only 2-cell stage embryos are selected, and fertilization rate is determined according to the following formula. In vitro fertilization rate (%)=(number of 2-cell stage embryo)/(number of 2-cell stage embryo+number of unfertilized ovum)×100\nAccording to the ordinary method as described above, fresh sperms and frozen sperms of C57BL/6J mice and refrigerated sperms (refrigerated for 2 days) of ICR mice were used to prepare sperm suspensions, which were used for conducting in vitro fertilization. Further, according to the ordinary method as described above, mouse fresh unfertilized ovums were prepared and cumulus-oocyte complexes were obtained.\nThe HTF culture medium was prepared according to the composition table described above. To the prepared HTF culture medium was added reduced glutathione so that its concentration was 1 mM (0.307 mg/ml), to prepare a glutathione-containing culture medium. Specifically, the HTF culture medium was prepared according to the composition table, and the culture medium was enclosed in an amount of 5 ml for each operation into an ample (component A). Further, 30.7 mg of reduced glutathione (available from SIGMA) and 593.8 mg of NaCl were mixed, then, the mixture was dispensed in one-time use amount (glutathione 1.535 mg/mixture 31.225 mg) (component B). Until use, these reagents were refrigerated, and directly before use, the component A and the component B were mixed and used for insemination. As the control, only the component A (THF culture medium containing no glutathione added) was used.\nSpecifically, into 90 μl of a HTF culture medium (glutathione concentration: 1 mM) containing cumulus-oocyte complexes (COCs) in a dish were added sperm suspensions (collected motile sperms) of fresh sperms, frozen sperms and refrigerated sperms each in an amount of 10 μl, and fertilization was conducted and fertilization rate was determined according to the above-described theory. An HTF culture medium containing no glutathione was used as the control.\nFertilization rate was investigated using various reduced glutathione concentrations, in the same manner as in Example 1. As the sperm, frozen sperms of C57BL/6J mice were used, and processed according to FIG. 1.\nRegarding the sperms, fresh sperms and frozen sperms pre-incubated with MBCD were used in performing fertilization. The concentration of glutathione in an HTF culture medium was 0.25 mM in the case of fresh sperms and 1 mM in the case of frozen sperms. The sperms were pre-incubated with a MBCD-containing TYH culture medium (no glutathione) before fertilization, in the same manner as in Example 3. The pre-incubation time was 1 hour in the case of fresh sperms and 30 minutes in the case of frozen sperms.\nThe sperms were pre-incubated with a MBCD-containing TYH culture medium (no glutathione) before fertilization, in the same manner as in Example 3. The pre-incubation time was 1 hour."}, "[4]": {"details": "freeze-thawed ovums, zona pellucida eliminated with 100 mM glutathione"}},
  "note": "Like-named read-outs stand apart in the source and are kept apart here.",
  "data": [
    {"smiles": "N[C@@H](CCC(=O)N[C@@H](CS)C(=O)NCC(=O)O)C(=O)O", "note": "[glutathione, reduced glutathione]", "values": [
      {"measurement": "fertilization rate", "setting": "[1]; [4]", "result": 25, "unit": "%"},
      {"measurement": "fertilization rate (fertilized/total)", "setting": "[1]; [4]", "result": "125/492"},
      {"measurement": "condition of zona pellucida of freeze-thawed unfertilized ovum", "setting": "[1]; glutathione 100 mM, 20° C., 90 seconds", "result": "the zona pellucida of a freeze-thawed unfertilized ovum was eliminated"},
      {"measurement": "glutathione concentration at which swelling of zona pellucida was recognized remarkably", "setting": "[2]", "result": "≥ 2", "unit": "mM"},
      {"measurement": "swelling of zona pellucida", "setting": "[2]; HTF with glutathione at various concentration", "result": "swelling of zona pellucida was confirmed depending on the glutathione concentration"},
      {"measurement": "fertilization rate (%)", "setting": "[3]; 129T2/SvEmsJ, cryopreserved sperms pre-incubated with MBCD, glutathione 1 mM", "result": 82.1, "unit": "%"},
      {"measurement": "fertilization rate (%)", "setting": "[3]; 129T2/SvEmsJ, fresh sperms pre-incubated with MBCD, glutathione 0.25 mM", "result": 84.9, "unit": "%"},
      {"measurement": "fertilization rate (%)", "setting": "[3]; B6C3F1, cryopreserved sperms pre-incubated with MBCD, glutathione 1 mM", "result": 87.6, "unit": "%"},
      {"measurement": "fertilization rate (%)", "setting": "[3]; B6C3F1, fresh sperms pre-incubated with MBCD, glutathione 0.25 mM", "result": 97.7, "unit": "%"},
      {"measurement": "fertilization rate (%)", "setting": "[3]; BALB/c, cryopreserved sperms pre-incubated with MBCD, glutathione 1 mM", "result": 68.3, "unit": "%"},
      {"measurement": "fertilization rate (%)", "setting": "[3]; BALB/c, fresh sperms pre-incubated with MBCD, glutathione 0.25 mM", "result": 74.7, "unit": "%"},
      {"measurement": "fertilization rate (%)", "setting": "[3]; BDF1, cryopreserved sperms pre-incubated with MBCD, glutathione 1 mM", "result": 98.3, "unit": "%"},
      {"measurement": "fertilization rate (%)", "setting": "[3]; BDF1, fresh sperms pre-incubated with MBCD, glutathione 0.25 mM", "result": 94.2, "unit": "%"},
      {"measurement": "fertilization rate (%)", "setting": "[3]; C3H/He, cryopreserved sperms pre-incubated with MBCD, glutathione 1 mM", "result": 98.0, "unit": "%"},
      {"measurement": "fertilization rate (%)", "setting": "[3]; C3H/He, fresh sperms pre-incubated with MBCD, glutathione 0.25 mM", "result": 97.5, "unit": "%"},
      {"measurement": "fertilization rate (%)", "setting": "[3]; C57BL/6J, cryopreserved sperms pre-incubated with MBCD, glutathione 1 mM", "result": 97.9, "unit": "%"},
      {"measurement": "fertilization rate (%)", "setting": "[3]; C57BL/6J, fresh sperms pre-incubated with MBCD, glutathione 0.25 mM", "result": 95.6, "unit": "%"},
      {"measurement": "fertilization rate (%)", "setting": "[3]; C57BL/6N, cryopreserved sperms pre-incubated with MBCD, glutathione 1 mM", "result": 90.9, "unit": "%"},
      {"measurement": "fertilization rate (%)", "setting": "[3]; C57BL/6N, fresh sperms pre-incubated with MBCD, glutathione 0.25 mM", "result": 90.9, "unit": "%"},
      {"measurement": "fertilization rate (%)", "setting": "[3]; DBA/2N, cryopreserved sperms pre-incubated with MBCD, glutathione 1 mM", "result": 95.8, "unit": "%"},
      {"measurement": "fertilization rate (%)", "setting": "[3]; DBA/2N, fresh sperms pre-incubated with MBCD, glutathione 0.25 mM", "result": 95.2, "unit": "%"},
      {"measurement": "fertilization rate (%)", "setting": "[3]; ICR, cryopreserved sperms pre-incubated with MBCD, glutathione 1 mM", "result": 94.9, "unit": "%"},
      {"measurement": "fertilization rate (%)", "setting": "[3]; ICR, fresh sperms pre-incubated with MBCD, glutathione 0.25 mM", "result": 93.8, "unit": "%"},
      {"measurement": "reduced glutathione concentration giving remarkable improvement in fertilization rate", "setting": "[3]; fresh sperms", "result": "≥ 0.075", "unit": "mg/mL"},
      {"measurement": "fertilization rate (%)", "setting": "[3]; fresh sperms of C57BL/6J mice, glutathione 1 mM in HTF", "result": 82.5, "unit": "%"},
      {"measurement": "effect on fertilization rate", "setting": "[3]; fresh sperms, various lineages, glutathione 0.25 mM", "result": "sufficient improvement in fertilization rate"},
      {"measurement": "glutathione concentration at which improvement in fertilization rate was confirmed", "setting": "[3]; frozen C57BL/6J sperms", "result": "≥ 0.5", "unit": "mM"},
      {"measurement": "fertilization rate (%)", "setting": "[3]; frozen sperms of C57BL/6J mice, glutathione 1 mM in HTF", "result": 92.1, "unit": "%"},
      {"measurement": "effect on fertilization rate", "setting": "[3]; frozen sperms, all mouse lineages, glutathione 1 mM", "result": "remarkable improvement in fertilization rate for frozen sperms"},
      {"measurement": "number of 2-cell stage embryo(%)", "setting": "[3]; glutathione 0.25 mM, frozen C57BL/6J sperms", "result": 67, "unit": "%"},
      {"measurement": "number of 2-cell stage embryo", "setting": "[3]; glutathione 0.25 mM, frozen C57BL/6J sperms, 279 oocytes", "result": 187},
      {"measurement": "number of 2-cell stage embryo(%)", "setting": "[3]; glutathione 0.50 mM, frozen C57BL/6J sperms", "result": 79, "unit": "%"},
      {"measurement": "number of 2-cell stage embryo", "setting": "[3]; glutathione 0.50 mM, frozen C57BL/6J sperms, 316 oocytes", "result": 251},
      {"measurement": "number of 2-cell stage embryo(%)", "setting": "[3]; glutathione 0.75 mM, frozen C57BL/6J sperms", "result": 82, "unit": "%"},
      {"measurement": "number of 2-cell stage embryo", "setting": "[3]; glutathione 0.75 mM, frozen C57BL/6J sperms, 307 oocytes", "result": 252},
      {"measurement": "effect on fertilization rate", "setting": "[3]; glutathione 1 mM, fresh, frozen and refrigerated sperms", "result": "significant improvement in fertilization rate"},
      {"measurement": "number of 2-cell stage embryo(%)", "setting": "[3]; glutathione 1.00 mM, frozen C57BL/6J sperms", "result": 92, "unit": "%"},
      {"measurement": "number of 2-cell stage embryo", "setting": "[3]; glutathione 1.00 mM, frozen C57BL/6J sperms, 276 oocytes", "result": 254},
      {"measurement": "number of 2-cell stage embryo(%)", "setting": "[3]; glutathione 1.25 mM, frozen C57BL/6J sperms", "result": 93, "unit": "%"},
      {"measurement": "number of 2-cell stage embryo", "setting": "[3]; glutathione 1.25 mM, frozen C57BL/6J sperms, 292 oocytes", "result": 272},
      {"measurement": "number of 2-cell stage embryo(%)", "setting": "[3]; glutathione 1.50 mM, frozen C57BL/6J sperms", "result": 89, "unit": "%"},
      {"measurement": "number of 2-cell stage embryo", "setting": "[3]; glutathione 1.50 mM, frozen C57BL/6J sperms, 294 oocytes", "result": 262},
      {"measurement": "number of 2-cell stage embryo(%)", "setting": "[3]; glutathione 2.00 mM, frozen C57BL/6J sperms", "result": 92, "unit": "%"},
      {"measurement": "number of 2-cell stage embryo", "setting": "[3]; glutathione 2.00 mM, frozen C57BL/6J sperms, 309 oocytes", "result": 285},
      {"measurement": "number of 2-cell stage embryo(%)", "setting": "[3]; glutathione 5.00 mM, frozen C57BL/6J sperms", "result": 86, "unit": "%"},
      {"measurement": "number of 2-cell stage embryo", "setting": "[3]; glutathione 5.00 mM, frozen C57BL/6J sperms, 292 oocytes", "result": 251},
      {"measurement": "number of 2-cell stage embryo(%)", "setting": "[3]; glutathione 10.00 mM, frozen C57BL/6J sperms", "result": 81, "unit": "%"},
      {"measurement": "number of 2-cell stage embryo", "setting": "[3]; glutathione 10.00 mM, frozen C57BL/6J sperms, 341 oocytes", "result": 276},
      {"measurement": "fertilization rate (%)", "setting": "[3]; refrigerated sperms (2 days) of ICR mice, glutathione 1 mM in HTF", "result": 63.9, "unit": "%"},
      {"measurement": "fertilization rate", "setting": "[3]; refrigerated sperms of C57BL/6J mice pre-incubated with MBCD 1 hour, glutathione 0.5 mM", "result": 85.4, "unit": "%"}
    ]}
  ]
}
